Test results taken from EP4741386A1 (Jiangsu Yahong Meditech Co., Ltd., priority 2023, dated 2025).

Key:
[1] = target: T1, Recombinant human His6-USP1/His6-UAF1 complex protein (Homo sapiens, UniProt O94782); assay: In vitro inhibitory activity against USP1 (Ubiquitin Rhodamine 110 fluorescence detection, 384-well plate); assay type: biochemical; settings: Ub-Rho substrate, 1 hour pre-incubation, read after 30 minutes
T1 construct: His6; purchased R&D E-568-050
Procedure, shortened: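 Fluorescence assay measuring inhibition of recombinant human His6-USP1/His6-UAF1 complex with Ubiquitin-Rhodamine 110 substrate. Compounds held as 50 mM stocks in 100% DMSO and dispensed by acoustic transfer into modified Tris assay buffer.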

[2] = system: MDA-MB-436; assay: CTG experiment for cell viability (CellTiter-Glo, 96-well plate, 7 days); assay type: cell-based; settings: Homo sapiens, MDA-MB-436, 168 h, MDA-MB-436 cells, 7 days culture with compound
Protocol: Test Example 2: CTG experiment for cell viability
• 1. Object: to screen USP1 inhibitors by a CTG assay, using a 96-well plate. • 2. Materials: • The cells used were MDA-MB-436 (manufacturer: Nanjing Cobioer Biotechnology Co., Ltd.) and cultured in DMEM medium, • CTG (CellTiter-Glo® Luminescent Cell Viability Assay kit) (Promega, Cat. No.: G7572), • 96-well plate (Corning, Cat. No.: 3610). • 3. Compounds: all compounds were dissolved in 100% DMSO to obtain 50 mM stock solutions. • 4. Experimental method: • ① Plating: The cells to be tested were spread into a 96-well plate at a certain density, with 200 µL per well, and 200 µL of cell medium was added to the blank wells. […] The cell plate with the compounds was placed in an incubator at 37°C, and further cultured for 7 days prior to detection. • ④ Assay: The substrate and the buffer of CTG kit were mixed evenly. The cell plate with the compounds in Step ③ was taken out from the incubator, and left at room temperature to equilibrate for 30 minutes. The medium containing the compounds was removed from the cell plate, 100 µL of PBS and 50 µL of CTG reagent were added to each well, shaken and mixed for 3 minutes, and then incubated for 10 minutes at room temperature. The plate was read by a BIotek microplate-reader, with a parameter set to 567 CPM. • 5. Curve fitting
It was the same as that for the enzyme.

T1 sequence (O94782 whole entry): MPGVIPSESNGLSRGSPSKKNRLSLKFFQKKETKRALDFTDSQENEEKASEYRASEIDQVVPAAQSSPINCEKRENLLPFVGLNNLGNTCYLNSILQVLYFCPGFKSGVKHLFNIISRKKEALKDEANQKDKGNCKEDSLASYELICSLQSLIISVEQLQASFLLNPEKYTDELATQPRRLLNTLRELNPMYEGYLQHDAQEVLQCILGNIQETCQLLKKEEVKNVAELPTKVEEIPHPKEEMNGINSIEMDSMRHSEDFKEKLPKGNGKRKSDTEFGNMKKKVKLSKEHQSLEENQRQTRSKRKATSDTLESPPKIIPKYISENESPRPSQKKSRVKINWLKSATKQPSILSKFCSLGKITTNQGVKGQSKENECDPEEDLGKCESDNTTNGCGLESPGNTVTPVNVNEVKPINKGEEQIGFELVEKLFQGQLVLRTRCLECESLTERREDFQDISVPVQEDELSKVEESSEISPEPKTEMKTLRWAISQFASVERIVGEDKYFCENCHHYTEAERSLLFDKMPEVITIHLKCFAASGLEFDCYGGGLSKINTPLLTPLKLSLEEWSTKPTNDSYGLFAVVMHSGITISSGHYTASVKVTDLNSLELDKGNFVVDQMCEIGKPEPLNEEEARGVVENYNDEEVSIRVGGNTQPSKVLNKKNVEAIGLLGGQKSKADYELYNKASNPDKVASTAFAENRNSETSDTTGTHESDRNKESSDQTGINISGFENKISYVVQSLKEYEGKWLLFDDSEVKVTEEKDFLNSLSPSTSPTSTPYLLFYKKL
T1 sequence (Q8TAF3 whole entry partner): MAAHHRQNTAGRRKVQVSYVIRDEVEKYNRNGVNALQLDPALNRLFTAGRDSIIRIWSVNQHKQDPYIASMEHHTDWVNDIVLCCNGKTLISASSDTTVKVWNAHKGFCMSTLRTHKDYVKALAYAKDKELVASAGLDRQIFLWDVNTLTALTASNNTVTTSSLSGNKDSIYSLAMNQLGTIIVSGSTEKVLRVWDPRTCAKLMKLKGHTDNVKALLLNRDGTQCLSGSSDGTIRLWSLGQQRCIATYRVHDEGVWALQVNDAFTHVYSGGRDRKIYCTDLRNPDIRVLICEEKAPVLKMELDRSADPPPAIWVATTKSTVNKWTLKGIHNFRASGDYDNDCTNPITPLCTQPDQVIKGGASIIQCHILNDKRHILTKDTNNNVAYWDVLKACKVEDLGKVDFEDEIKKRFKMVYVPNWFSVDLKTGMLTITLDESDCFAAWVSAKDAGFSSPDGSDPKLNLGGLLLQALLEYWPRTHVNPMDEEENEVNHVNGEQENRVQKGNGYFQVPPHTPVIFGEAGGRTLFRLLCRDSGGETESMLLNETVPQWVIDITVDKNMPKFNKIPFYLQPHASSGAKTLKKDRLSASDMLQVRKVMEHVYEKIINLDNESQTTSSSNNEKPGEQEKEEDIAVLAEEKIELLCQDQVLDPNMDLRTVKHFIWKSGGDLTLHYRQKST

Row | IC50 [1] [nM] | IC50 [2] [nM] | Structure (SMILES)
1 | 4.1 | 27.8 | COc1cc(-c2nc(C(F)(F)F)cn2C)ccc1CNc1nc(-c2c(OC)ncnc2C2CC2)ncc1OC [Example 100, 4'-Cyclopropyl-5,6'-dimethoxy-N-(2-methoxy-4-(1-methyl-4-(trifluoromethyl)-1H-imidazol-2-yl)benzyl)-[2,5'-bipyrimidin]-4-amine]
2 | 10 | 157 | CC(C)c1ccccc1-c1ncc(N2CCN(C)CC2)c(NCc2ccc(-c3nc(C(F)(F)F)cn3C)cc2)n1 [Example 88, 2-(2-Isopropylphenyl)-N-(4-(1-methyl-4-(trifluoromethyl)-1H-imidazol-2-yl)benzyl)-5-(4-methylpiperazin-1-yl)pyrimidin-4-amine]
3 | 91 | 239 | COc1cnc(-c2c(OC)ncnc2C(F)(F)F)nc1NCC12CCC(c3nc(C(F)(F)F)cn3C(C)C)(CC1)OC2 [Example S15, N-((1-(1-Isopropyl-4-(trifluoromethyl)-1H-imidazol-2-yl)-2-oxabicyclo[2.2.2]oct-4-yl)methyl)-4',5-dimethoxy-6'-(trifluoromethyl)-[2,5'-bipyrimidin]-4-amine]
4 | 25 | 15.7 | COc1cnc(-c2c(OC)ncnc2C2CC2)nc1N(O)Cc1ccc(-c2nc(C(F)(F)F)cn2C)cc1 [Example 204, N-(4'-cyclopropyl-5,6'-dimethoxy-[2,5'-bipyrimidin]-4-yl)-N-(4-(1-methyl-4-(trifluoromethyl)-1H-imidazol-2-yl)benzyl)hydroxylamine]
5 | 33 | 55.8 | COc1cnc(-c2c(OC)ncnc2C2CC2)nc1NCC12CCC(c3ccc(C(F)(F)F)cn3)(CC1)CC2 [Example 28]
6 | 3.9 | 77.5 | COc1cnc(-c2c(Cl)cnn2C(C)C)nc1NCc1ccc(-c2ccccn2)cc1 [Example 162, 2-(4-Chloro-1-isopropyl-1H-pyrazol-5-yl)-5-methoxy-N-(4-(pyridin-2-yl)benzyl)pyrimidin-4-amine]
7 | 9.8 | 120 | COc1cnn(C2CC2)c1-c1ncc(OC(F)F)c(NCc2ccc(-c3nc(C(F)(F)F)cn3C)cc2)n1 [Example 185, 2-(1-Cyclopropyl-4-methoxy-1H-pyrazol-5-yl)-5-(difluoromethoxy)-N-(4-(1-methyl-4-(trifluoromethyl)-1H-imidazol-2-yl)benzyl)pyrimidin-4-amine]
8 | 34 | 40.3 | COc1cnc(-c2c(OC)ncnc2C2CC2)nc1NCC12CCC(c3nc(C(F)(F)F)cn3C3CCC3)(CC1)OC2 [Example S16, N-((1-(1-Cyclobutyl-4-(trifluoromethyl)-1H-imidazol-2-yl)-2-oxabicyclo[2.2.2]oct-4-yl)methyl)-4'-cyclopropyl-5,6'-dimethoxy-[2,5'-bipyrimidin]-4-amine]
9 | 1.6 | 31.6 | COc1cnc(-c2c(Cl)cnn2C(C)C)nc1NCC12CCC(c3nc(C(F)(F)F)cn3C)(CC1)OC2 [Example 209, 2-(4-chloro-1-isopropyl-1H-pyrazol-5-yl)-5-methoxy-N-((1-(1-methyl-4-(trifluoromethyl)-1H-imidazol-2-yl)-2-oxabicyclo[2.2.2]octan-4-yl)methyl)pyrimidin-4-amine]
10 | 4.8 | 12 | COc1cnc(-c2c(OC)ncnc2C2CC2)nc1NCc1ccc(-c2nc(C(F)(F)F)cn2C)cc1 [Example 96, 4'-Cyclopropyl-5,6'-dimethoxy-N-(4-(1-methyl-4-(trifluoromethyl)-1H-imidazol-2-yl)benzyl)-[2,5'-bipyrimidin]-4-amine]
11 | 12 | 85.7 | c1ccc(-c2ccc(CNc3nc(-c4cccnc4C4CC4)nc4ccoc34)cc2)nc1 [Example 155, 2-(2-Cyclopropylpyridin-3-yl)-N-(4-(pyridin-2-yl)benzyl)furo[3,2-d]pyrimidin-4-amine]
12 | 8.4 | 75.1 | COc1cnc(-c2c(OC)ncnc2C2CC2)nc1NCC1CCN(c2nc(C(F)(F)F)cn2C)CC1 [Example 95, 4'-Cyclopropyl-5,6'-dimethoxy-N-((1-(1-methyl-4-(trifluoromethyl)-1H-imidazol-2-yl)piperidin-4-yl)methyl)-[2,5'-bipyrimidin]-4-amine]
13 | 0.8 | 0.4 | COc1cnc(-c2ccccc2C2CC2)nc1NCc1ccc(-c2nc(C(F)(F)F)cn2C)cc1 [Example 169, 2-(2-Cyclopropylphenyl)-5-methoxy-N-(4-(1-methyl-4-(trifluoromethyl)-1H-imidazol-2-yl)benzyl)pyrimidin-4-amine]
14 | 2.7 | 0.3 | [2H]C([2H])([2H])N(c1nc(-c2c(OC)ncnc2C2CC2)ncc1OC)C(C)c1ccc(-c2nc(C(F)(F)F)cn2C)cc1 (centres unmarked) [Example S3, 4'-Cyclopropyl-5,6'-dimethoxy-N-(methyl-D3)-N-(1-(4-(1-methyl-4-(trifluoromethyl)-1 H-imidazol-2-yl)phenyl)ethyl)-[2,5'-bipyrimidin]-4-amine]
15 | 8.9 | 50.5 | COc1cc(CNc2nc(-c3c(OC)ncnc3C3CC3)nc3ccoc23)ccc1-c1nc(C(F)(F)F)cn1C [Example 120, 2-(4-Cyclopropyl-6-methoxypyrimidin-5-yl)-N-(3-methoxy-4-(1-methyl-4-(trifluoromethyl)-1H-imidazol-2-yl)benzyl)furo[3,2-d]pyrimidin-4-amine]
16 | 3.9 | 103 | CC(C)c1ccccc1-c1ncc(C(F)(F)F)c(NCc2ccc(-c3nc(C(F)(F)F)cn3C)cc2)n1 [Example 17, 2-(2-Isopropylphenyl)-N-(4-(1-methyl-4-(trifluoromethyl)-1H-imidazol-2-yl)benzyl)-5-(trifluoromethyl)pyrimidin-4-amine]
17 | 9 | 12.4 | COCc1cnc(-c2c(OC)ncnc2C2CC2)nc1N(C)Cc1ccc(-c2nc(C(F)(F)F)cn2C(C)C)cc1 [Example 138, 4'-Cyclopropyl-N-(4-(1-isopropyl-4-(trifluoromethyl)-1H-imidazol-2-yl)benzyl)-6'-methoxy-5-(methoxymethyl)-N-methyl-[2,5'-bipyrimidin]-4-amine]
18 | 13 | 82.8 | COc1cc(CNc2nc(-c3c(OC)ncnc3C3CC3)nc3ccoc23)ccc1-n1nc(C(F)(F)F)cc1C [Example 122, 2-(4-Cyclopropyl-6-methoxypyrimidin-5-yl)-N-(3-methoxy-4-(5-methyl-3-(trifluoromethyl)-1H-pyrazol-1-yl)benzyl)furo[3,2-d]pyrimidin-4-amine]
19 | 13.8 | 278 | CCOCCOc1ccc(CNc2nc(-c3c(OC)ncnc3C3CC3)nc3ccoc23)cc1 [Example 117, 2-(4-Cyclopropyl-6-methoxypyrimidin-5-yl)-N-(4-(2-ethoxyethoxy)benzyl)furo[3,2-d]pyrimidin-4-amine]
20 | 5.6 | 28.7 | COc1cnc(-c2c(C)cnn2C2CC2)nc1NCc1ccc(-c2nc(C(F)(F)F)cn2C)cc1 [Example 199, 2-(1-Cyclopropyl-4-methyl-1H-pyrazol-5-yl)-5-methoxy-N-(4-(1-methyl-4-(trifluoromethyl)-1H-imidazol-2-yl)benzyl)pyrimidin-4-amine]
21 | 3.6 | 112 | CC(C)Oc1cnc(-c2ccccc2C(C)C)nc1NCc1ccc(-c2nc(C(F)(F)F)cn2C)cc1 [Example 73, 5-Isopropoxy-2-(2-isopropylphenyl)-N-(4-(1-methyl-4-(trifluoromethyl)-1H-imidazol-2-yl)benzyl)pyrimidin-4-amine]
22 | 5.2 | 5 | C#CCN(Cc1ccc(-c2nc(C(F)(F)F)cn2C)cc1)c1nc(-c2c(OC)ncnc2C2CC2)ncc1OC [Example 139, 4'-Cyclopropyl-5,6'-dimethoxy-N-(4-(1-methyl-4-(trifluoromethyl)-1H-imidazol-2-yl)benzyl)-N-(prop-2-yn-1-yl)-[2,5'-bipyrimidin]-4-amine]
23 | 28.6 | 354 | COc1ncnc(C2CC2)c1-c1ncc(OC(C)C)c(NCC2CCN(c3nc(C(F)(F)F)cn3C)CC2)n1 [Example 110, 4'-Cyclopropyl-5-isopropoxy-6'-methoxy-N-((1-(1-methyl-4-(trifluoromethyl)-1H-imidazol-2-yl)piperidin-4-yl)methyl)-[2,5'-bipyrimidin]-4-amine]
24 | 15 | 123 | COc1cnc(-c2c(OC)cnn2C(C)C)nc1NCc1ccc(-c2nc(C(F)(F)F)cn2C)cc1 [Example 180, 2-(1-Isopropyl-4-methoxy-1H-pyrazol-5-yl)-5-methoxy-N-(4-(1-methyl-4-(trifluoromethyl)-1H-imidazol-2-yl)benzyl)pyrimidin-4-amine]
25 | 2.1 | 2.4 | COc1cnc(-c2ccccc2C(C)C)nc1NCC1CCN(c2nc(C(F)(F)F)cn2C)CC1 [Example 65, 2-(2-Isopropylphenyl)-5-methoxy-N-((1-(1-methyl-4-(trifluoromethyl)-1H-imidazol-2-yl)piperidin-4-yl)methyl)pyrimidin-4-amine]
